{"source": "paper PMC4201354", "about": "(The Journal of Organic Chemistry, 2014)", "key": {"[1]": {"molecular_target": "yeast α-glucosidase", "settings": "against yeast α-glucosidase; cited from earlier work"}, "[2]": {"molecular_target": "T1, Mtb GlgE (Mycobacterium tuberculosis, UniProt P9WQ17)", "T1 sequence (P9WQ17 1-701)": "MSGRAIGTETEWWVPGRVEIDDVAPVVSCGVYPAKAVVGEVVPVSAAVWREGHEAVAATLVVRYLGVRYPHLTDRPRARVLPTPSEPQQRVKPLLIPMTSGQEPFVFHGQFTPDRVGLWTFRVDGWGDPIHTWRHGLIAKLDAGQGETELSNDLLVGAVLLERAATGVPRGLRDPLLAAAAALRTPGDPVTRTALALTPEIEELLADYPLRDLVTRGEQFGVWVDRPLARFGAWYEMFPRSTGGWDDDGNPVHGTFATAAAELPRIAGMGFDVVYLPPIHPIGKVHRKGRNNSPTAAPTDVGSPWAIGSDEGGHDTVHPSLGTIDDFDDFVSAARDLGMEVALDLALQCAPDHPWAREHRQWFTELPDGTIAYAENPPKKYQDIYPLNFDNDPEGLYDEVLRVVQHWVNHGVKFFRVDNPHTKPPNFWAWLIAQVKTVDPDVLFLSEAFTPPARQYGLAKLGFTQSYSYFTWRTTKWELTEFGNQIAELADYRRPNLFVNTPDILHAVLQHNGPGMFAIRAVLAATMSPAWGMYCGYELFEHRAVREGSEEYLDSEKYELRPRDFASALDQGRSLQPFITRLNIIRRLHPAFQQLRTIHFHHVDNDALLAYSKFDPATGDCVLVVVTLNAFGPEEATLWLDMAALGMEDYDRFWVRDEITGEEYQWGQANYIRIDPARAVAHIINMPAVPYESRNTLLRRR", "experiment": "GlgE-coupled enzyme assay utilizing PNP", "assay_type": "biochemical"}}}
{"molecule": "5-amino-5-deoxy-D-glucose [Compound 1]", "values": [{"measurement": "Ki", "setting": "[1]", "result": 6.3, "unit": "µM"}]}
{"molecule": "OC[C@H]1N[C@H](CO)[C@@H](O[C@H]2O[C@H](CO)[C@@H](O)[C@H](O)[C@H]2O)[C@@H]1O", "note": "[Compound 9, 2,5-dideoxy-3-O-α-D-glucopyranosyl-2,5-imino-D-mannitol]", "values": [{"measurement": "Ki", "setting": "[2]", "result": "237 ± 27", "unit": "µM"}]}
